# Source: ChEMBL document CHEMBL1201862, “PubChem BioAssay data set” (2004)
# Calls of active or inactive are those of the source.
# What was measured:
# [1] = P. falciparum Dd2 growth inhibitors, dose response, SYBR Green, cherry-picked samples (AID 1159567); format: functional, cell-based
# [2] = molecular target: T1, Calpain-2 catalytic subunit (Sus scrofa, UniProt P43367); assay: pig calpain II inhibitor potency, dose response, biochemical, fluorogenic peptide substrate (AID 1420); format: functional
# T1 sequence (P43367 whole entry): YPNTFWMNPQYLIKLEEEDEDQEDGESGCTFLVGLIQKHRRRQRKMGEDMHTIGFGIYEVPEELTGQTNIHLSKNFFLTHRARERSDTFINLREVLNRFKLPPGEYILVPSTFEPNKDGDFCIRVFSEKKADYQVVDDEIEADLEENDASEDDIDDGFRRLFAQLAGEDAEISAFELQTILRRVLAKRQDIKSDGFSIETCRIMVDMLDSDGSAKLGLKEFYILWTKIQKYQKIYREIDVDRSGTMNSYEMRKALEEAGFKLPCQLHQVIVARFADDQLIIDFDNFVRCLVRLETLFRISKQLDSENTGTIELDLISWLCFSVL
# [3] = molecular target: T2, Ubiquitin-conjugating enzyme E2 N (Homo sapiens, UniProt P61088); format: functional;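 also: Dose-response confirmation in a TR-FRET assay detecting UBC13-driven polyubiquitin chain formation, inhibition measured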
# T2 sequence (P61088 whole entry): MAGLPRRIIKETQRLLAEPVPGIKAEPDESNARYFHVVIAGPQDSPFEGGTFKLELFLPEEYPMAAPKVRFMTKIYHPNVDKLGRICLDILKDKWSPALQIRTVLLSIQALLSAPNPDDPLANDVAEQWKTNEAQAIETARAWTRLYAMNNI
# [4] = inhibitors of clade B AD8 Env fusion, dose response, cell-based, cherry-pick (AID 652062); format: functional;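 also: luciferase signal from cell-cell fusion driven by HIV-1 clade B AD8 Env; potency is for inhibitors of fusion seen as a drop in luminescence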
# cells [5] = format: functional, cell-based
# cells [6] = format: functional, cell-based; remark: listed apart in the source
# [7] = molecular target: T3, Polyadenylate-binding protein 1 (Homo sapiens, UniProt P11940); assay: PABP1 MLLE–PAM2 binding inhibitor potency, dose response, biochemical, fluorescence polarization, FITC-PAM2 peptide (AID 602259); format: functional; settings: read-out: IC50_Mean
# [8] = molecular target: T3, Polyadenylate-binding protein 1; assay: PABP1 MLLE–PAM2 interaction inhibitors, dose response, miRNA deadenylation inhibitor project, biochemical, fluorescence polarization, Cy5-PAM2 peptide, secondary (AID 602260); format: functional; settings: read-out: IC50_Mean
# [9] = intracellular Trypanosoma cruzi inhibitors in host cells – cell-based, plate reader, cherry-pick samples, set 3, dose response (AID 651818); format: functional;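 also: compounds incubated with infected cells for about four days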
# Fatty acid synthase [10] = molecular target: T4, Fatty acid synthase (Homo sapiens, UniProt P49327); assay: FAS thioesterase domain inhibitors, dose response, biochemical, endpoint fluorescence intensity, uHTS hits (AID 624327); format: functional;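 also: fluorescence from hydrolysis of an O-methyl fluorescein acyl ester substrate by the enzyme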
# [11] = growth suppression of beta-catenin-knockout colon cells, dose response, cell-based, HCT116, human colon tumor (AID 1045); format: functional;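 also: HCT116 colon tumor cells with beta catenin knocked out; cells exposed to compound for 60 hours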
# Fatty acid synthase [12] = molecular target: T4, Fatty acid synthase; assay: FAS thioesterase domain inhibitors, dose response, biochemical, kinetic fluorescence intensity (AID 624326); format: functional;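 also: rate of fluorescence rise from hydrolysis of a fluorogenic O-methyl fluorescein ester substrate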
# [13] = growth suppression of PTEN-null colon cells, dose response, cell-based, HCT116 PTEN knockout (AID 1047); format: functional;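 also: HCT116 colon tumor cells with PTEN knocked out; cells exposed to compound for 60 hours before readout; potency for loss of cell viability measured by luminescence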
# Genome polyprotein = Genome polyprotein (dengue virus type 2, UniProt P29990); assay: Dengue-2 NS5 methyltransferase inhibitors, primary screen, biochemical, confirmation dose response (AID 588689); format: functional
# [14] = molecular target: Induced myeloid leukemia cell differentiation protein Mcl-1 (Homo sapiens, UniProt Q07820); format: functional
# Streptococcus = assay: Group A Streptococcus viability loss, dose response, counter-screen for streptokinase expression inhibitor project, luminescence, BacTiterGlo (AID 1915); format: functional, organism-based;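 also: potency for reduction of bacterial viability or growth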
# [15] = tested on: Streptococcus sp. 'group A'; assay: growth inhibition of control SK(-) GAS strain, dose response, counter-screen for streptokinase expression inhibitor project, luminescence, kanamycin, BacTiterGlo, confirmation (AID 1900); format: functional, organism-based
# Streptokinase A = molecular target: T5, Streptokinase A (Streptococcus pyogenes serotype M1, UniProt P10520); assay: S. pyogenes streptokinase expression inhibitors, potency, dose response, plasminogen activation absorbance, OD405 (AID 1914); format: functional, Streptococcus pyogenes M1 GAS;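 also: secreted streptokinase activity via plasminogen activation per viability signal from cell pellet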
# T5 sequence (P10520 whole entry): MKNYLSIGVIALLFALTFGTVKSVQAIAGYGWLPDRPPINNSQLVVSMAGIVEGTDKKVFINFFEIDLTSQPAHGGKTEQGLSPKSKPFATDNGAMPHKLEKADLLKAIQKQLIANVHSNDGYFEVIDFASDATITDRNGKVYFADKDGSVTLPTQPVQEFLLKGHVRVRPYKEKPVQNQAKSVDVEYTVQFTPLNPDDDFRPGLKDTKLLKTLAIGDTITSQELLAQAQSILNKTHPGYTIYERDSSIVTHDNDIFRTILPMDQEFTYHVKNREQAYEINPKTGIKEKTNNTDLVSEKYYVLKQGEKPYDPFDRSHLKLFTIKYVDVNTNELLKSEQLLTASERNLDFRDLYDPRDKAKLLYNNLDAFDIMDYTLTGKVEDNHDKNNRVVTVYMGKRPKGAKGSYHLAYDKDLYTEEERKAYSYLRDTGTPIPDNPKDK
# T4 sequence (P49327 whole entry, the tested form may be a part): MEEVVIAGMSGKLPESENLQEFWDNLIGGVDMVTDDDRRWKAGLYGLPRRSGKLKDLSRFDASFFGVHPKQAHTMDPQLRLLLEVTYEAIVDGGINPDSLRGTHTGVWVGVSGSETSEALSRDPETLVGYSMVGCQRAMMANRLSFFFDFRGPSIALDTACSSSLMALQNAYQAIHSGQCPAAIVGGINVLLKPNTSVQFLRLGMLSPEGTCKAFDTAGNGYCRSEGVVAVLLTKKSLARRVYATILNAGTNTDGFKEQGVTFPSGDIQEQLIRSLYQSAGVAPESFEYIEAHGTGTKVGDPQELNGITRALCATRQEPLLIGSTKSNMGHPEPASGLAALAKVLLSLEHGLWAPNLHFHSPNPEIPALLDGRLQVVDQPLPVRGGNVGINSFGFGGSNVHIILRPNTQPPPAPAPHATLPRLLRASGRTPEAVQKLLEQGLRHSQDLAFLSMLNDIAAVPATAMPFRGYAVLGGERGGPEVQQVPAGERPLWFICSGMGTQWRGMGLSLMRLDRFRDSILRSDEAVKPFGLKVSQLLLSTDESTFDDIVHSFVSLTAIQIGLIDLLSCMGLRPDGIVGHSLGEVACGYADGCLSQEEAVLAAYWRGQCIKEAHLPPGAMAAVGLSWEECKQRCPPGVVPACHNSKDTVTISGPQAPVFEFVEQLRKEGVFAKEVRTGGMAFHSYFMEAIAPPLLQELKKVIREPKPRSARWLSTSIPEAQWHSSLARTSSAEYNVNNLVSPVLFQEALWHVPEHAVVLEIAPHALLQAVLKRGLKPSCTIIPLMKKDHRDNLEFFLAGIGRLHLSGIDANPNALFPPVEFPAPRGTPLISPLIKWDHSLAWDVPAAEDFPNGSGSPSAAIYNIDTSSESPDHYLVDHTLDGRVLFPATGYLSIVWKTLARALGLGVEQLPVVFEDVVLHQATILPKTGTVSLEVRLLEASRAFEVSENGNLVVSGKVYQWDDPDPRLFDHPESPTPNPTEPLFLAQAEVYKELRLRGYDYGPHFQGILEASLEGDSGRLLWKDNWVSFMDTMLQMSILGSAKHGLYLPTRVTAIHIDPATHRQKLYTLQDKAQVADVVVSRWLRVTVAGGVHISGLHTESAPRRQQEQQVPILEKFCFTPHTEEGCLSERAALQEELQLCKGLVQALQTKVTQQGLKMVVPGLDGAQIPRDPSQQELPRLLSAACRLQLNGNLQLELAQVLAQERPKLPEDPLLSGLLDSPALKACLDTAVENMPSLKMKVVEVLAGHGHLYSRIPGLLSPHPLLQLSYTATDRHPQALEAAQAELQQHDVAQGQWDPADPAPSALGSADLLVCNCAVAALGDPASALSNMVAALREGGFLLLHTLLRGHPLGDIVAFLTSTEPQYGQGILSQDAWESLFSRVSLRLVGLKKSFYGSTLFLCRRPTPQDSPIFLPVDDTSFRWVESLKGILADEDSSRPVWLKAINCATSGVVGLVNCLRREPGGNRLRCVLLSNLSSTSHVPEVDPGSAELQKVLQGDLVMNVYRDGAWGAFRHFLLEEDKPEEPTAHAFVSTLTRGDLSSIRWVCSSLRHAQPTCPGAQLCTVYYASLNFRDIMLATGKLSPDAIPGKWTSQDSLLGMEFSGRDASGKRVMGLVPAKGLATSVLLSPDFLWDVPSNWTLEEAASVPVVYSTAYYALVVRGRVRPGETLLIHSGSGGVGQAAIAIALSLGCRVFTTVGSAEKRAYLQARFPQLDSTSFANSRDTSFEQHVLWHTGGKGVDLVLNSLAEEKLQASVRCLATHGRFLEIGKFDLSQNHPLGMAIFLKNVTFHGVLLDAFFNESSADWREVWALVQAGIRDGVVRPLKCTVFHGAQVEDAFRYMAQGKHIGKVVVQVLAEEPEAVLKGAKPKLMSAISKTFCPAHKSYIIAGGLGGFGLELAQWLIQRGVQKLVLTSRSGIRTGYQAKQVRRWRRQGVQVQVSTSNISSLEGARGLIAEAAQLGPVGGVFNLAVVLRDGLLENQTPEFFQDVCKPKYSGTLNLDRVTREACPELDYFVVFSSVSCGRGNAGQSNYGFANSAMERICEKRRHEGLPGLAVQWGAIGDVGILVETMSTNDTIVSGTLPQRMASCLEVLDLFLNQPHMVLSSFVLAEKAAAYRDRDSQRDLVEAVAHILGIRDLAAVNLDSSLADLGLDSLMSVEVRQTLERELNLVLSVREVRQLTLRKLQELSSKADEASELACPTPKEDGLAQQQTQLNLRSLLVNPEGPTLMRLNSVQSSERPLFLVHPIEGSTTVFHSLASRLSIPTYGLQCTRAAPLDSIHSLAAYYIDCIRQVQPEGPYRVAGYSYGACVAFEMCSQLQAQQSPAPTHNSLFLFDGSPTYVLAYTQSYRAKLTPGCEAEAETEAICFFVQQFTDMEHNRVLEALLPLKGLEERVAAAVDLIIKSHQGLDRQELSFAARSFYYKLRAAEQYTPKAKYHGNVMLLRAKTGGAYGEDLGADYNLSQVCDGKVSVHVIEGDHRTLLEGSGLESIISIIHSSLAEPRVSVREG
# T3 sequence (P11940 whole entry): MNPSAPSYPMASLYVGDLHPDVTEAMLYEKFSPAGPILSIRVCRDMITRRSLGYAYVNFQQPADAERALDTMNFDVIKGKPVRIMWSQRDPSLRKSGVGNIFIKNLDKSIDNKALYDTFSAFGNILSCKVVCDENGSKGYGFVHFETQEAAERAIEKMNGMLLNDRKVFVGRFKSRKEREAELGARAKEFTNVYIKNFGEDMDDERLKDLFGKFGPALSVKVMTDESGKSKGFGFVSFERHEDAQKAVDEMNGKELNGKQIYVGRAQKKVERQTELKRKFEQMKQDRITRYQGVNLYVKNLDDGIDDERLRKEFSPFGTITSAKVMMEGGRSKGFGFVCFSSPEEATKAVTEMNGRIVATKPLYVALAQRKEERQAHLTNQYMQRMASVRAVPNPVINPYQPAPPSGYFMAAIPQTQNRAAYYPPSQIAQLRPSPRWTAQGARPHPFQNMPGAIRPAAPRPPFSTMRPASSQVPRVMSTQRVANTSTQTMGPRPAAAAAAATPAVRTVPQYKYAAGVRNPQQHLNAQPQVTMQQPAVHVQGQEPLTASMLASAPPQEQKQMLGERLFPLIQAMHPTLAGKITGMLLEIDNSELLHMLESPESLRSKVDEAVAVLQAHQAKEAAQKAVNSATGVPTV
# Chain of Genome polyprotein (P29990 2492-3391 limits assumed): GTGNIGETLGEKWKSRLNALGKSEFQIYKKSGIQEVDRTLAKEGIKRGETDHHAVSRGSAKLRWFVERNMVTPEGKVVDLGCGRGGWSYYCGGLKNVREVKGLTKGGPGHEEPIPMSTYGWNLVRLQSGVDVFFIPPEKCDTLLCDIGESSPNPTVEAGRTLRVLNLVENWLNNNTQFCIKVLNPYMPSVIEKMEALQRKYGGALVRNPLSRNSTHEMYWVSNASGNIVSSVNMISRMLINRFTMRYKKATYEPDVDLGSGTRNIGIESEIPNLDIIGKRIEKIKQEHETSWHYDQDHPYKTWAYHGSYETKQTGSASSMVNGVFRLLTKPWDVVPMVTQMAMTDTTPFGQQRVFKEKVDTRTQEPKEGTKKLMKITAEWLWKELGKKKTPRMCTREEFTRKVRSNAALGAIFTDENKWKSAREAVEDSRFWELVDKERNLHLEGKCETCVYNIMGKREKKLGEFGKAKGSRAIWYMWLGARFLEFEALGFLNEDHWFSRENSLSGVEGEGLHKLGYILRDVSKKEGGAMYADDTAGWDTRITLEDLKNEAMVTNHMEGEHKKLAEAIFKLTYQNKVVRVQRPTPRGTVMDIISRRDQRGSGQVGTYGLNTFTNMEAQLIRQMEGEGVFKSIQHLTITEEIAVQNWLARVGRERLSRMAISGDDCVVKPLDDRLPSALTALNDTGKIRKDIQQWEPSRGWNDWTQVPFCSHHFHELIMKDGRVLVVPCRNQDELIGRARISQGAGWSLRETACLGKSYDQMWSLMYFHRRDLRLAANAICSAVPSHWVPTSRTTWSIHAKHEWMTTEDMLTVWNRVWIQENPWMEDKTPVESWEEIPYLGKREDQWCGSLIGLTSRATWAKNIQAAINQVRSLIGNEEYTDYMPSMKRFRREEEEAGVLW
# Chain of Induced myeloid leukemia cell differentiation protein Mcl-1 (Q07820 whole entry): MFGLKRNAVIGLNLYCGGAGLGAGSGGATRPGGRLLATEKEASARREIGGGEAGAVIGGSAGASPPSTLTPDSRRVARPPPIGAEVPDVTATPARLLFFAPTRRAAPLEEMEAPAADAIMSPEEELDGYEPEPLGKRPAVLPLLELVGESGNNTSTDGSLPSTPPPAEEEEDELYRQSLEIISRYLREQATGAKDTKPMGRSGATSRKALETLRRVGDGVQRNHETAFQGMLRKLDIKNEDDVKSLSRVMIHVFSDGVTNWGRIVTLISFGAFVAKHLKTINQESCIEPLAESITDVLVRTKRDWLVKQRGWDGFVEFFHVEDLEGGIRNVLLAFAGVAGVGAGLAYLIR
smiles,measurement,setting,value
COc1ccc2c3c(n(C)c2c1)[C@H](CO)N(C(=O)Nc1cccc(F)c1)CC31CN(C)C1,AC50,[1],5.83 µM (active)
Cc1cc2c(C)ccc(C)c2nc1SCC(=O)c1cccs1,IC50,[2],< 0.4 µM (not active)
COC(=O)C1=C(C)N(CC2CC2)C(NCc2cccc(C(F)(F)F)c2)=N[C@H]1c1ccccc1,IC50,[3],> 20 µM (inactive)
CCC[C@@H](CN1CCC[C@H]1CN1C(N)=NC[C@H]1C(C)C)N1C[C@@H]([C@H](C)CC)N(CCCC2CCCC2)C1=N,IC50,[3],> 20 µM (inactive)
CCCNC(=O)N1CC(=O)N2[C@@H](CO)[C@@H](c3ccc(C#Cc4cccc(OC)c4)cc3)[C@@H]2C1,AC50,[1],17 µM (active)
COc1ccc(NC(=O)C2(C)CCN2Cc2ccccc2OC(F)F)cc1OC (stereo not drawn),AC50,[4],55.5 µM (active)
Oc1nncc(N/N=C\c2cccs2)c1Cl,EC50,cells [5],> 29.9 µM (inactive)
same,IC50,cells [6],> 29.9 µM (inactive)
O=C(c1nc2ccccn2c1CN1CCCC(O)C1)N1CCN(C2CCCCC2)CC1 (stereo not drawn),IC50,[7],> 66 µM (inactive)
same,IC50,[8],> 66 µM (inactive)
C[C@@H]1CN([C@H](C)CO)C(=O)c2c(c3ccccc3n2C)-c2ccccc2CO[C@H]1CN(C)Cc1ccc(Oc2ccccc2)cc1,AC50,[1],3.03 µM (active)
COc1ccc(S(=O)(=O)N(C)C[C@H]2Oc3ccc(NS(=O)(=O)c4ccc(F)cc4)cc3CC(=O)N([C@H](C)CO)C[C@H]2C)cc1,AC50,[9],8.25 µM (active)
COc1ccccc1/C=C(\NC(=O)c1ccc(OC)c(OC)c1)C(=O)Nc1cc([N+](=O)[O-])ccc1C,IC50,Fatty acid synthase [10],2.16 µM (active)
same,EC50,[11],44.4 µM (active)
same,IC50,Fatty acid synthase [12],3.48 µM (active)
same,EC50,[13],43.6 µM (active)
COC(=O)Nc1ccc(SCC(=O)c2cccc([N+](=O)[O-])c2)cc1,IC50,[7],> 66 µM (inactive)
same,IC50,[8],> 66 µM (inactive)
CC(NC(=O)Cn1cc([N+](=O)[O-])cn1)c1ccc(C(C)(C)C)cc1 (stereo not drawn),IC50,Fatty acid synthase [10],4.06 µM (active)
same,IC50,Fatty acid synthase [12],4.54 µM (active)
COc1ccc(C2=NN(C(=O)CSc3nc(=O)n4ccc(C)cc4n3)C(c3ccc(C)cc3)C2)cc1 (stereo not drawn),IC50,Fatty acid synthase [10],9.17 µM (active)
same,IC50,Fatty acid synthase [12],8.93 µM (active)
COc1ccc2c3c([nH]c2c1)[C@@H](CO)N(Cc1ccccc1F)CC31CN(C(=O)C2CCCC2)C1,AC50,[1],6.64 µM (active)
CO[C@H]1CN(C)C(=O)c2ccc(NC(=O)c3nc4ccccc4s3)cc2OC[C@H](C)N(Cc2ccncc2)C[C@@H]1C,AC50,[1],5.3 µM (active)
Cc1c(C(=O)NC(=S)Nc2ccc3c4c(cccc24)CC3)cccc1[N+](=O)[O-],IC50,[7],> 66 µM (inactive)
same,IC50,[8],> 66 µM (inactive)
C[C@@H]1CN([C@H](C)CO)C(=O)c2cc(NC(=O)Cc3cn(C)c4ccccc34)ccc2O[C@@H]1CN(C)C(=O)Nc1ccc(C(F)(F)F)cc1,AC50,[9],3.26 µM (active)
COc1ccccc1C(=O)COC(=O)c1cc([N+](=O)[O-])ccc1N1CCOCC1,IC50,Fatty acid synthase [10],5.96 µM (active)
same,IC50,Fatty acid synthase [12],6.45 µM (active)
COc1cccc(CNc2ccc(F)c([N+](=O)[O-])c2)c1O,IC50,[2],7.78 µM (active)
C[C@H]1CN([C@@H](C)CO)C(=O)c2cccc(NC(=O)NC3CCCCC3)c2O[C@H]1CN(C)Cc1ccc(C(=O)Nc2ccccc2N)cc1,AC50,[9],2.74 µM (active)
CCCCn1c(S)nnc1-c1csc(CCC)c1,IC50,[2],24.1 µM (not active)
CCOCCCn1c(=N)c(S(=O)(=O)c2ccc(C)cc2)cc2c(=O)n3cc(C)ccc3nc21,IC50,[7],53.1 µM (inactive)
same,IC50,[8],> 66 µM (inactive)
CC(C)(C)c1ccc(OCCC(=O)OCC(=O)N2c3ccccc3NC(=O)C2(C)C)cc1,IC50,Fatty acid synthase [10],11.2 µM (active)
same,IC50,Fatty acid synthase [12],4.48 µM (active)
CC[C@@H](C)[C@@H]1CN([C@@H](CN2CCC[C@H]2CN2C(N)=NC[C@H]2C(C)C)C(C)C)C(=N)N1CCCC1CCCC1,IC50,[3],> 20 µM (inactive)
C[C@@H]1CN([C@@H](C)CO)C(=O)c2cccc(NC(=O)CCCCCC(=O)Nc3ccccc3N)c2O[C@@H]1CN(C)S(=O)(=O)c1ccc(Cl)cc1,AC50,[9],3.26 µM (active)
O=C1c2cccc3cccc(c23)C(=O)N1CCCN1CCN(c2ccc(F)cc2)CC1,IC50,[2],8.84 µM (not active)
N#C/C(=C\c1cccs1)C(=O)c1ccccc1,IC50,Genome polyprotein,> 100 µM (active)
Cc1ccc2c(c1)C(c1ccccc1)N(C(=O)c1cccc([N+](=O)[O-])c1)CC(=O)N2 (stereo not drawn),IC50,Fatty acid synthase [10],2.57 µM (active)
same,IC50,Fatty acid synthase [12],2.53 µM (active)
Cc1onc(-c2c(F)cccc2Cl)c1C(=O)NC(=S)NC1CCSC1=O (stereo not drawn),IC50,[7],> 66 µM (inactive)
same,IC50,[8],> 66 µM (inactive)
C[C@H]1CN([C@@H](C)CO)C(=O)c2cc(N(C)C)ccc2O[C@@H]1CN(C)C(=O)Nc1ccc(C(F)(F)F)cc1,AC50,[9],5.64 µM (active)
O=C(O)c1ccccc1SC1CC(=O)N(c2ccc3c(c2)OCO3)C1=O (stereo not drawn),IC50,[7],> 66 µM (inactive)
same,IC50,[8],> 66 µM (inactive)
C[C@@H]1CN([C@H](C)CO)C(=O)Cc2cc(NS(=O)(=O)c3ccc(F)cc3)ccc2O[C@H]1CN(C)Cc1ccc(C(=O)Nc2ccccc2N)cc1,AC50,[9],3.17 µM (active)
Cc1cc(NC(=O)CSc2nc3sc4c(c3c(=O)n2C)CCCC4)no1,IC50,[2],25.2 µM (not active)
O=C1NC(=S)N(c2ccccc2F)C(=O)/C1=C\c1cccs1,IC50,Genome polyprotein,70.3 µM (active)
same,IC50,[14],2.07 µM (active)
COCCNC(=O)c1c(NC(=O)c2ccco2)n(Cc2ccccc2)c2nc3ccccc3nc12,IC50,Genome polyprotein,> 100 µM (active)
same,EC50,Streptococcus,> 150 µM (not active)
same,EC50,[15],12.8 µM (active)
same,EC50,Streptokinase A,> 150 µM (not active)
O=C(/C=C/c1cccc([N+](=O)[O-])c1)NCCSCc1ccc(Cl)cc1,IC50,Fatty acid synthase [10],10.2 µM (active)
same,IC50,Fatty acid synthase [12],11.6 µM (active)
CCO[C@H]1OC(C(=O)NCc2ccccc2)=C[C@@H](C2CCCCC2)[C@@H]1CCCO,IC50,Fatty acid synthase [10],7.45 µM (active)
same,IC50,Fatty acid synthase [12],11.5 µM (active)
C[C@@H]1CCCCO[C@@H](CN(C)C(=O)Nc2ccc(C(F)(F)F)cc2)[C@@H](C)CN([C@H](C)CO)C(=O)c2cc(NC(=O)Nc3ccc(C(F)(F)F)cc3)ccc2O1,AC50,[9],3.39 µM (active)
COc1ccccc1N1CCN(C(=O)[C@H](C)NS(=O)(=O)c2ccc3c(c2)OCCCO3)CC1,IC50,[7],> 66 µM (inactive)
same,IC50,[8],> 66 µM (inactive)
COc1cccc(NC(C)C(=O)Nc2cc([N+](=O)[O-])ccc2Cl)c1 (stereo not drawn),IC50,Fatty acid synthase [10],9.92 µM (active)
same,IC50,Fatty acid synthase [12],12.4 µM (active)
COc1ccc2c3c([nH]c2c1)[C@H](CO)N(Cc1cc(F)ccc1F)CC31CCN(C(C)=O)CC1,AC50,[1],3.39 µM (active)
COc1cc(/C=C2/SC(NS(=O)(=O)Cc3ccccc3)=NC2=O)c([N+](=O)[O-])cc1OC,IC50,Genome polyprotein,76.1 µM (active)
Cc1c(N2C(=O)/C(=C3\C(=O)N(CC(=O)O)c4ccccc43)SC2=S)c(=O)n(-c2ccccc2)n1C,IC50,[7],> 66 µM (inactive)
same,IC50,[8],> 66 µM (inactive)
